Counter-ions that a name gives are not always drawn. Like-named read-outs stand apart in the source and are kept apart here.
Tests used:
[1] = system: NMDA-stimulated 3H-acetylcholine release, striatum sections; experiment: Inhibition of NMDA-stimulated 3H-acetylcholine release from striatum sections of the rat brain; format: cell-based
Protocol: 2. Inhibition of ^3 H-acetylcholine release from striatum sections of the rat brain
Test principle: For the test, fresh striatum sections from rat brain were rinsed with buffer solution in a special chamber and the release of the tritium-labeled acetylcholine was measured after stimulation with NMDA. Preparations having NMDA-antagonist action inhibit acetylcholine release.
Experimental protocol: The superfusion experiments were carried out by the method of Wichman et al. (Naunyn-Schmied. Arch. Pharmacol., 338 (1988), 623-631). Rat brain sections, 0.5 mm thick, were preincubated for 30 min in 2 ml of incubation medium which contains 0.1 μmol/l of ^3 H-choline having a specific activity of 80 Ci/mmol. In each of 6 superfusion chambers, a section was transferred and superfused for 90 min at a rate of 1.5 ml/min. 2 min fraction of the superfusate were continuously collected. Each section was superfused twice with 25 μmol/l of NMDA of two minutes each time in order to stimulate the release of acetylcholine. The first stimulus (S1) takes place between the 54th and the 56th minute and the 2nd stimulus (S2) between the 76th and 78th minute. The incubation medium contained, in mmol/l: NaCl 118, KCl 4.8, CaCl2 1.2, MgSO4 1.2, NaHCO3 25, KH2 PO4 1.2 and glucose 10. The medium was saturated with Carbogen at 37° C. The pH was adjusted to 7.4 NMDA and the novel preparations to be tested were dissolved in superfusion medium. The superfusion was carried out using Mg^2+ -free medium. Tritium from the dissolved sections and from the superfusate was determined by liquid scintillation counting using a Packard® 1900 CA (Frankfurt) at a 50% efficiency.
Calculation of the Results
Basal release and NMDA-stimulated release for S1 and S2 were expressed in %/min of each fraction (Limberger et al, Naunyn Schmied. Arch. Pharmacol. 339 (1988), 53-61).
The value for the stimulated release S2 /S1 was calculated for the control as 0.69±0.09. The value decreases if a substance, such as, for example, the NMDA receptor antagonist CPP (3-(+)-2-carboxypiperazin-4-ylpropyl-1-phosphonic acid) known from the literature inhibited the NMDA-stimulated release. The inhibition of the stimulated release by preparations was calculated in percent, relative to the control value, and is indicated in Table 4.

[2] = system: NMDA receptor-channel complex; experiment: Inhibition of 3H-MK-801 binding to membranes from rat brain; conditions: preparation concentration 50 μM; 3H-MK801 1 nM
Protocol: 3. Inhibition of ^3 H-MK-801 binding to membranes from rat brain
Test principle: MK-801 is a non-competitive antagonist which binds to ion channels coupled to NMDA receptors (Yoneda et al., Brain Res. 499 (1989), 305). Membranes from whole brain containing preparation and ^3 H-MK-801 are incubated in the test. The binding of ^3 H-MK-801 or its displacement by preparations (antagonists) is determined by radiochemical methods.
Experimental protocol: The binding experiments are carried out by the method of Reynolds et al. (Proc. Natl. Acad. Sci. USA, 84 (1987), 7744). Membrane preparation is first carried out according to Reynolds. Test samples are then pipetted, buffer and test preparation being initially introduced, then preincubated with protein for 2 minutes, and initiated using ^3 H-MK801. The membranes are thawed at 37° C., incubated at 37° C. for 10 minutes and homogenized for 15 seconds at half the maximum speed by means of a Polytron, then used in the cool state again. The incubation medium contains: pH 7.4 Hepes buffer 20 mM, preparations in three concentrations 5 μM, 10 μM and 50 μM, membranes 500 μg/ml of test solution, ^3 H-MK801 1 nM. Incubation is carried out at room temperature (23° C.) for 60 minutes and is then stopped by filtration. For this purpose, glass fiber paper No. 32 from Schleicher and Schull, which had been soaked in 0.03% polyethyleneimine for 30 minutes on the day before the experiment are counted in 4 ml of "Packard 199™" Scintillation fluid (Frankfurt). Tritium is determined by liquid scintillation counting using a Packard 1500.
Calculation of the results: The calculation of the binding in femtomol/mg of protein over a period of 60 min. was carried out using a small calculator (HP-97). If a substance antagonizes the binding, the value decreases. Substance activities are indicated in Table 5 as percentages, i.e. in % binding compared to the control. The activity of the comparison preparation CPP (3-(+)-2-carboxypiperazin-4-ylpropyl-1-phosphonic acid) at 5 μM, 10 μM and 50 μM is always determined to check the test.

[3] = Toxicity (LD50) in the mouse; conditions: in vivo, iv
From the text: As the examples investigated show considerable differences in toxicity compared to the standard substances, the LD50 values are also listed in Table 6,

NMDA-induced cramps = experiment: Inhibition of NMDA-induced cramps in the mouse; format: in vivo; conditions: po, 1 h
Protocol: 4. Inhibition of NMDA-induced-cramps in the mouse
The examples listed below show neuroprotective activity in that they antagonize the cramps induced by NMDA (N-methyl-(D)-aspartate). To this end, intravenous injections of 20-30 mg/kg of NMDA are carried out on a male NMRI (Naval Medical Research Institute) mice of 22-24 g body weight, which leads to stereotypes, clonic cramps and in the majority of cases to mortality. In order to investigate an NMDA-antagonist activity of the test substances, they are administered orally one hour before NMDA. The animals are then observed for the abovementioned symptoms for up to 60 min. The number of animals with clonic cramps and the incidence of mortality, expressed in percent change compared to the control group, is regarded as the evaluation criterion.

[4] = system: high affinity 3H-D-aspartate absorption, synaptic vesicles (synaptosomes) from rat cortex; experiment: "High affinity" absorption of 3H-aspartate in a vesicle preparation from rat brain; format: biochemical; conditions: relative to control values (100%)
Protocol: 1. "High affinity" absorption of ^3 H-aspartate in a vesicle preparation from rat brain.
Test principle: Fresh synaptic vesicles (synaptosomes) from rat cortex are incubated with buffer solution and ^3 H-D-aspartate and ^3 H-D-aspartate in the vesicles is measured. Preparations which in comparison to control synaptosomes increase the high affinity ^3 H-D-aspartate absorption and those which prevent the loss of ^3 H-D-aspartate by reliberation are regarded as particularly interesting.
Experimental protocol: The experiments for ^3 H-D-aspartate absorption were carried out by the method of Anand et al. (Biochem. Pharmacol., 35 (1986), 1055-1057). The synaptic vesicles were dissected out of cerebral cortex from male Sprague-Dawley rats. The preparations were tested at four concentrations as double samples in parallel with control samples containing buffer. The incubation medium (pH 7.4) contains: 1.2 mM KH2 PO4, 5 mM KCl, 5 mM pyruvate, 1.2 mM glucose, 1.2 mM MgCl2, 114 mM NaCl, 25 mM NaHCO3. For the non-specific ^3 H-D-aspartate absorption, NaCl was replaced by 114 mM choline chloride and NaHCO3 by 25 mM KHCO3. An aliquot of the vesicle suspension (about 25 μg/ml of test solution) was added to the test sample which was temperature controlled at 37° C. and aerated with Carbogen (5% CO2, 95% O2) and preincubated for 2 minutes. The three minutes incubation for the amino acid absorption was started by addition of 50 μl of ^3 H-D-aspartate (specific activity 25 Ci/mmol, 10 pmol/ml of test solution). The vesicles were separated from the incubation medium by filtration and additional washing of the adhering labeled amino acids using a Titertek cell harvester (Flow Laboratories, Meckenheim). The ^3 H-D-aspartate absorption was measured by means of a liquid scintillation counter (Canberra-Packard, Model 1500, Frankfurt).
The preparation activity is indicated in percent of the specific ^3 H-D-aspartate absorption, relative to control values (100%), in Table 3. Adenosine triphosphate (ATP) was used for comparison as the standard substance (see Table 3) and at 1 mM caused a 35% increase in the ^3 H-D-aspartate absorption.

[5] = system: CA1 pyramidal cells of the hippocampus after forebrain ischemia; experiment: Neuroprotection after forebrain ischemia in the gerbil; conditions: 15 minutes before ischemia; for Cell necroses (% change): histopathological score CA1, treated versus control group; for Behavior score (% change): treated versus control group
Protocol: A 5-minutes' ischemia of the forebrain with subsequent recirculation is produced in 20 male Mongolian gerbils under halothane anesthesia by bilateral closure of the corotid artery by means of aneurysm clips. 7 days later, the animals are decapitated under halothane anesthesia, the brains are fixed by immersion in Carnoy solution and the extent of neuron damage in the CA1 region of the hippocampus is determined "blind" with the aid of a 5-stage histopathological score. The test substance is administered intraperitoneally or orally 15 minutes before ischemia to each group of 10 gerbils. One ischemic control group, also of 10 animals, is treated with the respective solvents per test substance.

[6] = preparation concentration 10 μM, 25 μmol/l NMDA stimulus, relative to control S2/S1, read-out: Inhibition of 3H-acetylcholine release from striatum sections, Inhibition (%)
[7] = preparation concentration 500 μM
[8] = preparation concentration 10 μM
[9] = 50 mg/kg p.o., one hour before NMDA i.v., change compared to control group, read-out: Inhibition of convulsions
[10] = read-out: Inhibition of mortality
[11] = preparation concentration 100 μM
[12] = read-out: Inhibition of 3H-acetylcholine release from striatum sections, Inhibition (%)

SMILES: O=C(O)C1CN(CCCP(=O)(O)O)CCN1 (racemic) [CPP, 3-(+)-2-carboxypiperazin-4-ylpropyl-1-phosphonic acid, reference compound]
- inhibition at 10 µM [1, 6]: 30%
- Inhibition of 3H-MK-801 binding to the NMDA receptor-channel complex, inhibition (%) [2]: 81%

SMILES: CC(C)[C@@H]1CC[C@@H](C)C[C@H]1OC(=O)C1CC(C(=O)O)=NO1 (single isomer, unassigned; (-)) [Example 57, (-)-menthyl-3-carboxy-2-isoxazoline-5-yl-carboxylatedicyclohexylammonium salt]
- Inhibition of 3H-MK-801 binding to the NMDA receptor-channel complex, inhibition (%) [2]: 43%

SMILES: NCc1cc(C(=O)O)no1 [Example 1, 3-Carboxy-5-aminomethylisoxazole]
- LD50 [3]: > 200 mg/kg
- inhibition at 10 µM [1, 6]: 13%
- inhibition in vivo at 63 mg/kg (NMDA-induced cramps; 63 mg/kg p.o., one hour before NMDA i.v., change compared to control group, read-out: Inhibition of convulsions): 50%
- Stimulation of the 3H-D-aspartate absorption, Stimulation (%) [4, 7]: 15%

SMILES: O=C(O)c1cc(CNCc2ccccc2)on1 [Example 2, 5-Benzylaminomethyl-3-carboxyisoxazole]
- Inhibition of 3H-MK-801 binding to the NMDA receptor-channel complex, inhibition (%) [2]: 10%
- Stimulation of the 3H-D-aspartate absorption, Stimulation (%) [4, 7]: 12%

SMILES: Cl.NCc1cc(CCC(=O)OCc2ccccc2)no1 [Example 5, Benzyl 5-aminomethylisoxazole-3-propionate hydrochloride]
- Inhibition of 3H-MK-801 binding to the NMDA receptor-channel complex, inhibition (%) [2]: 78%
- Stimulation of the 3H-D-aspartate absorption, Stimulation (%) [4, 8]: 26%

SMILES: CC(C)[C@H]1CC[C@H](C)C[C@@H]1OC(=O)CCc1cc(CN)on1 [Example 7, (+)-menthyl 5-aminomethylisoxazole-3-propionate toluene-4-sulfonate]
- inhibition at 10 µM [1, 6]: 28%

SMILES: CC(C)[C@@H]1CC[C@@H](C)C[C@H]1OC(=O)CCc1cc(CN)on1 [Example 8, (-)-menthyl 5-aminomethylisoxazole-3-propionate toluene-4-sulfonate]
- LD50 [3]: 50 to 100 mg/kg
- Cell necroses (% change) ([5]; 50 mg/kg p.o.): -46 % change
- Behavior score (% change) ([5]; 50 mg/kg p.o.): 0 % change
- inhibition at 10 µM [1, 6]: 30%
- inhibition in vivo at 50 mg/kg (NMDA-induced cramps; [9]): 70%
- inhibition in vivo at 50 mg/kg (NMDA-induced cramps; [10]): 100%
- Stimulation of the 3H-D-aspartate absorption, Stimulation (%) [4, 8]: 13%

SMILES: NCc1cc(CCC(=O)O)no1 [Example 12, 5-Aminomethylisoxazole-3-propionic acid]
- LD50 [3]: > 100 mg/kg
- Cell necroses (% change) ([5]; 10 mg/kg i.p.): -32 % change
- Behavior score (% change) ([5]; 10 mg/kg i.p.): 0 % change
- Cell necroses (% change) ([5]; 50 mg/kg p.o.): -14 % change
- Behavior score (% change) ([5]; 50 mg/kg p.o.): 0 % change
- inhibition in vivo at 50 mg/kg (NMDA-induced cramps; [9]): 45%
- inhibition in vivo at 50 mg/kg (NMDA-induced cramps; [10]): 60%
- Stimulation of the 3H-D-aspartate absorption, Stimulation (%) [4, 7]: 17%

SMILES: CC(C)[C@@H]1CC[C@@H](C)C[C@H]1OC(=O)CCc1cc(C[N+](C)(C)C)on1 [Example 18, (-)-Menthyl 5-trimethylammoniomethylisoxazole-3-propionate iodide]
- Cell necroses (% change) ([5]; 50 mg/kg p.o.): -23 % change
- Behavior score (% change) ([5]; 50 mg/kg p.o.): +15 % change
- inhibition at 10 µM [1, 6]: 22%
- Stimulation of the 3H-D-aspartate absorption, Stimulation (%) [4, 11]: 46%

SMILES: CC(C)[C@H]1CC[C@H](C)C[C@@H]1OC(=O)CCc1cc(CNC(=O)[C@@H](N)Cc2ccccc2)on1 [Example 20, (+)-Menthyl 5-(L-phenylalanylamino)methylisoxazole-3propionate hydrochloride]
- LD50 [3]: 25 to 50 mg/kg
- inhibition at 10 µM [1, 6]: 18%
- inhibition in vivo at 50 mg/kg (NMDA-induced cramps; [9]): 10%
- inhibition in vivo at 50 mg/kg (NMDA-induced cramps; [10]): 100%

SMILES: COC(=O)CCc1cc(CNC(=O)[C@@H](N)Cc2ccccc2)on1.Cl [Example 22, Methyl 5-(L-phenylalanylamino)methylisoxazole-3-propionate hydrochloride]
- inhibition at 10 µM [1, 6]: 15%
- Stimulation of the 3H-D-aspartate absorption, Stimulation (%) [4, 11]: 23%

SMILES: O=C(O)CCC1=NOC(c2ccccn2)C1 (stereo not drawn) [Example 33, 3-(2-Carboxyethyl)-5-(2-pyridyl)-2-isoxazoline]
- inhibition at 10 µM [1, 6]: 26%

SMILES: COC(=O)CCC1CC(CN)=NO1 (stereo not drawn) [Example 34, Methyl 3-aminomethyl-2-isoxazoline-5-propionate toluene-4-sulfonate]
- inhibition at 10 µM [1, 12]: 9%

SMILES: O=C(O)C1=NOC(C(=O)O)C1 (stereo not drawn) [Example 56, 3,5-dicarboxyl-2-isoxazoline]
- inhibition at 10 µM [1, 6]: 11%
- Stimulation of the 3H-D-aspartate absorption, Stimulation (%) [4, 7]: 17%

SMILES: O=C(O)CCc1cc(CO)on1 [Example 59, 5-Hydroxylmethyl-isoxazole-3-propionate sodium salt]
- inhibition at 10 µM [1, 12]: 26%

Reference: patent US5273989A, “3,5-disubstituted 2-isoxazolines and isoxazoles, agents containing them and their use” (Hoechst Aktiengesellschaft, priority 1990, dated 1993)
